Key:
[1] = molecular target: T1, Peroxisome proliferator-activated receptor alpha (Homo sapiens, UniProt Q07869); assay: Affinity On-target Cellular interaction: (Reporter gene assay (HEK293T cells)) EUB0001140a PPARA; assay type: functional, cell-based, HEK-293T; design: mode of action Agonist, recommended concentration 1 uM
T1 sequence (Q07869 whole entry): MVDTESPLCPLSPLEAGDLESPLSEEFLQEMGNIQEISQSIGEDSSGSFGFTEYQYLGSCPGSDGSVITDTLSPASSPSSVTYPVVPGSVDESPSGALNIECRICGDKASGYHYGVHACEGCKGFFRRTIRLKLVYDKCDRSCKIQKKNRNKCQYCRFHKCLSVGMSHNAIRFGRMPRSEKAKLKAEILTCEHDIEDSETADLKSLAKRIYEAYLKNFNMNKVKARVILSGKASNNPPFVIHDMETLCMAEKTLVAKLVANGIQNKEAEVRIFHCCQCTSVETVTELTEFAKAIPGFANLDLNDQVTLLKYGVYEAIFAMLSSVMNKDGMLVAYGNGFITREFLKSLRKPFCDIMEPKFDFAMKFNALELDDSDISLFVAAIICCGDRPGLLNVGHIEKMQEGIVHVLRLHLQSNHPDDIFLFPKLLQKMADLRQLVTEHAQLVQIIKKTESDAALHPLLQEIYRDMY

[2] = molecular target: T2, Oxysterols receptor LXR-beta (Homo sapiens, UniProt P55055)
T2 sequence (P55055 whole entry): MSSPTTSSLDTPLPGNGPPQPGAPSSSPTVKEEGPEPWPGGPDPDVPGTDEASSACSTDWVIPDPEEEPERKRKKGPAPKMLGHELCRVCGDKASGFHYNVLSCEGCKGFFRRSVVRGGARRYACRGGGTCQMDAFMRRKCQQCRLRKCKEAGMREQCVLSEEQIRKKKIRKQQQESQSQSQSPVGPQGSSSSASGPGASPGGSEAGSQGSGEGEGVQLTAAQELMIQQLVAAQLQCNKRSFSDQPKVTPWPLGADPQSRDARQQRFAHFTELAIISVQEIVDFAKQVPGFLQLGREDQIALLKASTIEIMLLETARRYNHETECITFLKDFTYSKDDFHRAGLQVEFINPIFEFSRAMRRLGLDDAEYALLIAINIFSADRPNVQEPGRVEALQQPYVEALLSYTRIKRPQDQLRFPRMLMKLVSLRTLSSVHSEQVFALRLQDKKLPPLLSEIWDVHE

[3] = molecular target: T3, Oxysterols receptor LXR-alpha (Homo sapiens, UniProt Q13133); assay: Affinity On-target Cellular interaction: (Reporter gene assay (HEK293T cells)) EUB0000082b NR1H3; assay type: functional, cell-based, HEK-293T; design: mode of action Agonist, recommended concentration 3 uM
T3 sequence (Q13133 whole entry): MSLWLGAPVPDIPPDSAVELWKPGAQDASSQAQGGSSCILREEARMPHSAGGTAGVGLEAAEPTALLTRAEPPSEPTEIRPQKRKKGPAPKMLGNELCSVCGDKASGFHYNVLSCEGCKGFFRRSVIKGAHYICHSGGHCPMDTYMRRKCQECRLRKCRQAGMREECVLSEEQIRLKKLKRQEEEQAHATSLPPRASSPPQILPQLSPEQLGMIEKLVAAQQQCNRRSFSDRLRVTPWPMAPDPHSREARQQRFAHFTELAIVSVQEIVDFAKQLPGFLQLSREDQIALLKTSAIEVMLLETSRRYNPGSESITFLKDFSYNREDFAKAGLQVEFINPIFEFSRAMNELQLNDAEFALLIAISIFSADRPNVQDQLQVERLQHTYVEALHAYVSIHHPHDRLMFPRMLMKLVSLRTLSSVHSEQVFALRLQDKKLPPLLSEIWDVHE

[4] = molecular target: Nuclear receptor subfamily 1 group D member 2 (Homo sapiens, UniProt Q14995); assay: Affinity On-target Cellular interaction: (Reporter gene assay (HEK293T cells)) EUB0001152a NR1D2; assay type: functional, cell-based, HEK-293T; design: mode of action Agonist, recommended concentration 10 uM
Nuclear receptor subfamily 1 group D member 2, sequence (Q14995 whole entry): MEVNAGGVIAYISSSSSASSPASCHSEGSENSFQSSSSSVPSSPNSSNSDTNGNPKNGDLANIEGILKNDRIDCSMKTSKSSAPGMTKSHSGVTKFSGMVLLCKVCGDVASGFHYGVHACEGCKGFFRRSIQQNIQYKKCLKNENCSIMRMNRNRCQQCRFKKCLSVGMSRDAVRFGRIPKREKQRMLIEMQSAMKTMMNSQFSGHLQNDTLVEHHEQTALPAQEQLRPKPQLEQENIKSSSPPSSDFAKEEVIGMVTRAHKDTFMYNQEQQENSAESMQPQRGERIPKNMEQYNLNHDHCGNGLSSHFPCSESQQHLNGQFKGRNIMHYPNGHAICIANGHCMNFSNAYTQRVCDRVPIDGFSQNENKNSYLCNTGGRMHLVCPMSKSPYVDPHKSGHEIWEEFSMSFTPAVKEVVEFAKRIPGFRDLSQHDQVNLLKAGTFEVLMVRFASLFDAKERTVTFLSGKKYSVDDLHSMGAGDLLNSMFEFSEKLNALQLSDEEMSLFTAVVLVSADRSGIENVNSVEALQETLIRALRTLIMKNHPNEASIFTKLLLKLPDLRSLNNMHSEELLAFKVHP

[5] = molecular target: Retinoic acid receptor alpha (Homo sapiens, UniProt P10276); assay: Affinity On-target Cellular interaction: (Reporter gene assay (HEK293T cells)) EUB0000835a RARA; assay type: functional, cell-based, HEK-293T; design: mode of action Agonist, recommended concentration 1 uM
Retinoic acid receptor alpha, sequence (P10276 whole entry): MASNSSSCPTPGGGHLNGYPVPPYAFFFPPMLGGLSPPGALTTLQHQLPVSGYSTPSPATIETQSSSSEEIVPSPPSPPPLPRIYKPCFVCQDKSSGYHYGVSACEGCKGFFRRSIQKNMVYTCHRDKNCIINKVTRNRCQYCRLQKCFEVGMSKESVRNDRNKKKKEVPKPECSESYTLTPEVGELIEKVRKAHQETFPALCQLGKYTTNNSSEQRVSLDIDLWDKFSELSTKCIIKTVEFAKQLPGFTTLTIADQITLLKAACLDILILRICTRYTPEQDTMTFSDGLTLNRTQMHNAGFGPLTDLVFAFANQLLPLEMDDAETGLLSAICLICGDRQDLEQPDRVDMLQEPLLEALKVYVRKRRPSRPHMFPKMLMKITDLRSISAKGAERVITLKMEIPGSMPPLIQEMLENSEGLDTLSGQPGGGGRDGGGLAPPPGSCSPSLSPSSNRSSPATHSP

[6] = molecular target: Retinoic acid receptor beta (Homo sapiens, UniProt P10826); assay: Affinity On-target Cellular interaction: (Reporter gene assay (HEK293T cells)) EUB0000835a RARB; assay type: functional, cell-based, HEK-293T; design: mode of action Agonist, recommended concentration 1 uM
Retinoic acid receptor beta, sequence (P10826 whole entry): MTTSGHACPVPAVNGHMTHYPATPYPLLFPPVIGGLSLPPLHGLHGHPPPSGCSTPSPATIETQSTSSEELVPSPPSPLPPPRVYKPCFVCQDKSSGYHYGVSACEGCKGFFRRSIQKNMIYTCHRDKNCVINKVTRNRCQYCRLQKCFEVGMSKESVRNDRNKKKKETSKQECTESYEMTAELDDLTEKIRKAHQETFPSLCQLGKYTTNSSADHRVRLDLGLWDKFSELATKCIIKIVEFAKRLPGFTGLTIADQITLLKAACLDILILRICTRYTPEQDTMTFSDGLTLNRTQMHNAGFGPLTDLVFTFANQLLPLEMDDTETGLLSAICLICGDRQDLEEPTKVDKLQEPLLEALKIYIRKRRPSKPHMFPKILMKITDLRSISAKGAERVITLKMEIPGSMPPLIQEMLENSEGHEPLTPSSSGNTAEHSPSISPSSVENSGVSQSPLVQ

[7] = molecular target: Retinoic acid receptor gamma (Homo sapiens, UniProt P13631); assay: Affinity On-target Cellular interaction: (Reporter gene assay (HEK293T cells)) EUB0000835a RARG; assay type: functional, cell-based, HEK-293T; design: mode of action Agonist, recommended concentration 1 uM
Retinoic acid receptor gamma, sequence (P13631 whole entry): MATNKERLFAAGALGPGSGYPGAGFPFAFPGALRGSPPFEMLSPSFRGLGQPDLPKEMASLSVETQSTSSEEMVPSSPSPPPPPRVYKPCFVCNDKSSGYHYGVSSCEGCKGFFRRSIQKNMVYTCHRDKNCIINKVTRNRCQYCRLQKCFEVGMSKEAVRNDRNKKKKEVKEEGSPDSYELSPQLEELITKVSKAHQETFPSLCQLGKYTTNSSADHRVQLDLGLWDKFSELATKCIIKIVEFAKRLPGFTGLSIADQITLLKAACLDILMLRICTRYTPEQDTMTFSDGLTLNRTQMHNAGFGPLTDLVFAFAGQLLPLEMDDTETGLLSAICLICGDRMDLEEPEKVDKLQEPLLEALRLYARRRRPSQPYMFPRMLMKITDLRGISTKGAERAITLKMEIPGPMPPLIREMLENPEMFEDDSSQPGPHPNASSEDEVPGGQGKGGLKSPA

[8] = molecular target: T1, Peroxisome proliferator-activated receptor alpha; assay: Affinity On-target Cellular interaction: (Reporter gene assay (HEK293T cells)) EUB0001150a PPARA; assay type: functional, cell-based, HEK-293T; design: mode of action Antagonist, recommended concentration 10 uM
[9] = molecular target: T4, Peroxisome proliferator-activated receptor gamma (Homo sapiens, UniProt P37231); assay: Affinity On-target Cellular interaction: (Reporter gene assay (HEK293T cells)) EUB0001150a PPARG; assay type: functional, cell-based, HEK-293T; design: mode of action Antagonist, recommended concentration 10 uM
T4 sequence (P37231 whole entry): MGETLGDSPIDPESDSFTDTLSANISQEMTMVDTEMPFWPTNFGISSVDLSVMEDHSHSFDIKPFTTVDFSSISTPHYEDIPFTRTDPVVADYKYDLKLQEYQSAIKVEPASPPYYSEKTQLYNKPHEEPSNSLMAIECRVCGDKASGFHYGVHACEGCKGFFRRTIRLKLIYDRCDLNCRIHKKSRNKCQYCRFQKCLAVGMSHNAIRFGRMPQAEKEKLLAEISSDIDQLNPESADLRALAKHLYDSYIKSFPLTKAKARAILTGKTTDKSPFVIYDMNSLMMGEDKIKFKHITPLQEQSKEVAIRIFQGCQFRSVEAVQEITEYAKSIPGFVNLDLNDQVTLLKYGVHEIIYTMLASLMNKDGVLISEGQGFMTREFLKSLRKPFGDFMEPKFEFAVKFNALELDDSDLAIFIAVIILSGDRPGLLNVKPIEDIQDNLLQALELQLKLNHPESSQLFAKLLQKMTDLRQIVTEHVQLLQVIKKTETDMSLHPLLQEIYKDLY

Bile acid receptor = Bile acid receptor (Homo sapiens, UniProt Q96RI1); assay: Affinity On-target Cellular interaction: (Reporter gene assay (HEK293T cells)) EUB0000182b NR1H4; assay type: functional, cell-based, HEK-293T; design: mode of action Agonist, recommended concentration 1 uM
Bile acid receptor, sequence (Q96RI1 whole entry): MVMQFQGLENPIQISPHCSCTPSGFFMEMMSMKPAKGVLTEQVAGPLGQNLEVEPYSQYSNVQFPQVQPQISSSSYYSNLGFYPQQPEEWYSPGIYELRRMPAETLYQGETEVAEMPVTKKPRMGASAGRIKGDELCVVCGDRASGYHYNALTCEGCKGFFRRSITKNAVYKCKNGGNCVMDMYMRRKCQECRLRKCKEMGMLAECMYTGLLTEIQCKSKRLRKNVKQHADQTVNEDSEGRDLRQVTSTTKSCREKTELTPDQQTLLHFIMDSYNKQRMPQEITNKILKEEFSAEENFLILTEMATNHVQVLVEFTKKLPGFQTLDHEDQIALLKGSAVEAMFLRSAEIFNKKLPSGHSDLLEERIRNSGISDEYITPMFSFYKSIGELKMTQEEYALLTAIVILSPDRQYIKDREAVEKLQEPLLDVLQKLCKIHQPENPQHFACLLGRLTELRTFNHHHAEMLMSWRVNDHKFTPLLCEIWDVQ

[10] = molecular target: T5, Peroxisome proliferator-activated receptor delta (Homo sapiens, UniProt Q03181); assay: Affinity On-target Cellular interaction: (Reporter gene assay (HEK293T cells)) EUB0001151a PPARD; assay type: functional, cell-based, HEK-293T; design: mode of action Antagonist, recommended concentration 1 uM
T5 sequence (Q03181 whole entry): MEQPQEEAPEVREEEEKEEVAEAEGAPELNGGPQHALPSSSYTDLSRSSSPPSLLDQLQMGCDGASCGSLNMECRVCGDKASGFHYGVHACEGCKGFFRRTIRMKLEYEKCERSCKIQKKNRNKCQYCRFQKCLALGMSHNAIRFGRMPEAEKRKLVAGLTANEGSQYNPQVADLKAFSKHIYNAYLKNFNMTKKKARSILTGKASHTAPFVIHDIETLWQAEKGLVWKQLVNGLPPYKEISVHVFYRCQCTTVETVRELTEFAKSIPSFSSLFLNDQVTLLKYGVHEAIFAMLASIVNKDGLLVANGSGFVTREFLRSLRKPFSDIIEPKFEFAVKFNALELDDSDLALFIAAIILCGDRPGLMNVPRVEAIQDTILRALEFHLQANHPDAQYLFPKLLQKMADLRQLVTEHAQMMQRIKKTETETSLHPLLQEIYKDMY

[11] = molecular target: T2, Oxysterols receptor LXR-beta; assay: Affinity On-target Cellular interaction: (Reporter gene assay (HEK293T cells)) EUB0000572aCl NR1H2; assay type: functional, cell-based, HEK-293T; design: mode of action Agonist, recommended concentration 3 uM
[12] = molecular target: T4, Peroxisome proliferator-activated receptor gamma; assay: Affinity On-target Cellular interaction: (Reporter gene assay (HEK293T cells)) EUB0000571a PPARG; assay type: functional, cell-based, HEK-293T; design: mode of action Agonist, recommended concentration 1 uM
[13] = molecular target: T4, Peroxisome proliferator-activated receptor gamma; assay: Affinity On-target Cellular interaction: (Reporter gene assay (HEK293T cells)) EUB0001143a PPARG; assay type: functional, cell-based, HEK-293T; design: mode of action Agonist, recommended concentration 1 uM
[14] = molecular target: Nuclear receptor subfamily 1 group I member 3 (Homo sapiens, UniProt Q14994); assay: Affinity On-target Cellular interaction: (Reporter gene assay (HEK293T cells)) EUB0000551aCl NR1I3; assay type: functional, cell-based, HEK-293T; design: mode of action Antagonist, recommended concentration 1 uM
Nuclear receptor subfamily 1 group I member 3, sequence (Q14994 whole entry): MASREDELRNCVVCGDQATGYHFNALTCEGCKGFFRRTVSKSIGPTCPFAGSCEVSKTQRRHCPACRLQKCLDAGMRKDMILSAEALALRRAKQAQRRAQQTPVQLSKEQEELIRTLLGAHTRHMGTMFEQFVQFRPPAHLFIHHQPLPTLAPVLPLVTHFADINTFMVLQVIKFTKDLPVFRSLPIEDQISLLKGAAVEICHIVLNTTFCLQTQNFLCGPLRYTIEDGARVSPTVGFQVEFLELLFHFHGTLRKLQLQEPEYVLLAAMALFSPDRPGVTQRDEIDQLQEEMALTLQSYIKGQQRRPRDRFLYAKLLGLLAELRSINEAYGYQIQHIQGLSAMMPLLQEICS

Compound: COc1ccc(OC(=O)N(CC(=O)O)Cc2ccc(OCCc3nc(-c4ccccc4)oc3C)cc2)cc1 [MURAGLITAZAR]
- EC50 [1]: 0.05 µM

Compound: Fc1ccc(-c2c3cccc(C(F)(F)F)c3nn2Cc2ccc(F)cc2Cl)cc1 [LXR-623]
- EC50 [2]: 4 µM
- EC50 [3]: 7 µM

Compound: CCOC(=O)N1CCC(CN(Cc2ccc(Cl)cc2)Cc2ccc([N+](=O)[O-])s2)C1 (stereo not given) [SR9009]
- EC50 [4]: 11 µM

Compound: C[C@H]1[C@H]2CC[C@H]3[C@@H]4CC=C5C[C@@H](N(C)C)CC[C@]5(C)[C@H]4CC[C@]23CN1C [CONESSINE]
- EC50 [5]: 0.63 µM
- EC50 [6]: 0.01 µM
- EC50 [7]: 0.501 µM

Compound: COC(=O)c1sccc1S(=O)(=O)Nc1ccc(Nc2ccccc2)cc1OC
- IC50 [8]: 6.1 µM
- IC50 [9]: 7.6 µM

Compound: COC(=O)/C=C/c1cccc(N(Cc2ccc(-c3ccc(N(C)C)cc3)cc2)C(=O)C2CCCCC2)c1 [FEXARAMINE]
- EC50 (Bile acid receptor): 0.96 µM

Compound: O=C(NCCS(=O)(=O)c1ccc(C(F)(F)F)cn1)c1ccc(Cl)cc1
- IC50 [10]: 0.1 µM

Compound: O=C(O)Cc1cccc(OCCCN(Cc2cccc(C(F)(F)F)c2Cl)CC(c2ccccc2)c2ccccc2)c1
- EC50 [11]: 2.1 µM

Compound: COC(=O)C(Cc1ccc(OCCn2c(=O)sc3cc(C(=O)c4ccccc4)ccc32)cc1)C(=O)OC
- EC50 [12]: 0.042 µM

Compound: COc1cc2c(cc1CC=C(C)C)C(=O)C[C@@H](c1ccc(O)cc1)O2 [BAVACHININ A]
- EC50 [13]: 0.73 µM

Compound: Cc1cccc(CN2CCN(C(c3ccccc3)c3ccc(Cl)cc3)CC2)c1 (stereo not given)
- IC50 [14]: 0.063 µM

— ChEMBL document CHEMBL5723379, “Affinity On-target Cellular Literature for EUbOPEN Chemogenomic Library” (2024)
